Columns and labels:
human NPY Y5 receptor = target: T1, human NPY Y5 receptor (Homo sapiens, UniProt Q15761); test: NPY binding inhibition test (Pharmacological Test 1); details: [125I]peptideYY, membrane sample from cells expressing NPY Y5 receptor, 25° C., 2 hours; read-out: IC50 of the test compound against specific peptideYY binding
T1 construct: expressed in transfected cells; host or cells: COS-7, CHO and LM(tk-)
T1 sequence (Q15761 1-445): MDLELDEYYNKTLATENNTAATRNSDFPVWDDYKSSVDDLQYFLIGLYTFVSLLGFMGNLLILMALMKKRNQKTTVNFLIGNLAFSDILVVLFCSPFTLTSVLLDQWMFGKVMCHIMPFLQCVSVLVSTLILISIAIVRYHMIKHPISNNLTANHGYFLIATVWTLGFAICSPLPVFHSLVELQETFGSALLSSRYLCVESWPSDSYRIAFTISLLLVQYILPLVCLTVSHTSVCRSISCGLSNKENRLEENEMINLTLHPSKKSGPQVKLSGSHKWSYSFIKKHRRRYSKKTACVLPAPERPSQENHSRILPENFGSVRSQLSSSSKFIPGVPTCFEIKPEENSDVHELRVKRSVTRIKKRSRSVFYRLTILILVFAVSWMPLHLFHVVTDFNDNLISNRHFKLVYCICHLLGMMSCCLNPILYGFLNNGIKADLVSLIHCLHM
Text: Pharmacological Test 1 (NPY Binding Inhibition Test)
cDNA sequence encoding human NPY Y5 receptor [International patent publication number WO96/16542] was cloned into expression vectors pcDNA3, pRc/RSV (made by Invitrogen Inc.) and pCI-neo (made by Promega Inc.). This obtained expression vectors were transfected to host cells COS-7, CHO and LM(tk-) (American Type Culture Collection) by cationic lipid method [Proceedings of the National Academy of Sciences of the United States of America, 84: 7413(1987)] to give NPY Y5 receptor expression cells.
A membrane sample prepared from the cells which expressed NPY Y5 receptor was incubated together with a test compound and [^125I]peptideYY (NEN) (20,000 cpm) in an assay buffer (25 mM Tris buffer, pH7.4, containing 10 mM magnesium chloride, 1 mM phenylmethylsulfonyl fluoride, 0.1% bacitracin and 0.5% bovine serum albumin) at 25° C. for 2 hours, then filtered through a glass filter GF/C and washed with 5 mM Tris buffer (pH7.4) containing 0.3% BSA. The radioactivity of the cake on the glass filter was measured. Nonspecific binding was measured in the presence of 1 μM peptideYY and a 50% Inhibitory Concentration (IC50) of the test compound against specific peptideYY binding was determined [Endocrinology, 131: 2090(1992)].

[1] = Isolation of metabolites of compound of example 101; details: parent: compound of example 101

SMILES	IC50 (human NPY Y5 receptor)	melting point	isolated as metabolite [1]
O=C(c1ccccc1)c1ccc(NC(=O)N2CCC3(CC2)NC(=O)c2ccccc23)cc1 [Example 1, N-(4-benzoylphenyl)-3-oxospiro[isoindoline-1,4′-piperidine]-1′-carboxamide]	1.2 nM	–	–
O=C1Cc2ccccc2C2(CCN(C(=O)Nc3cn(-c4ccc5ccccc5n4)cn3)CC2)N1 [Example 9, 3,4-Dihydro-3-oxo-N-[1-(2-quinolyl)-4-imidazolyl]spiro[isoquinoline-1(2H),4′-piperidine]-1′-carboxamide]	0.72 nM	264 to 266 °C	–
O=C1OC2(CCN(C(=O)Nc3ccc4ncc(C(F)(F)F)cc4n3)CC2)c2ccccc21 [Example 26, 3-Oxo-N-(7-trifluoromethylpyrido[3,2-b]pyridin-2-yl)-spiro[isobenzofuran-1(3H),4′-piperidine]-1′-carboxamide]	2.5 nM	246 to 248 °C	–
O=C1Cc2ccccc2C2(CCN(C(=O)Nc3ccc(C(=O)c4ccccc4)cc3)CC2)O1 [Example 44, N-(4-benzoylphenyl)-3,4-dihydro-3-oxospiro[1H-2-benzopyran-1,4′-piperidine]-1′-carboxamide]	1.5 nM	–	–
O=C1Cc2ccccc2C2(CCN(C(=O)Nc3cnc(C(=O)c4ccccc4)cn3)CC2)O1 [Example 46, N-(5-benzoyl-2-pyrazinyl)-3,4-dihydro-3-oxospiro[1H-2-benzopyran-1,4′-piperidine]-1′-carboxamide]	–	128 to 131 °C	–
O=C1OC2(CCC(C(=O)Nc3ncc(-c4ccccc4)cn3)CC2)c2ccccc21 (stereo not drawn) [Example 50, Trans-3′-oxo-N-(5-phenyl-2-pyrimidinyl)spiro[cyclohexane-1,1′(3′H)-isobenzofuran]-4-carboxamide]	0.48 nM	–	–
O=C1OC2(CCC(C(=O)Nc3cn(-c4cnc5ccccc5c4)cn3)CC2)c2ccccc21 (stereo not drawn) [Example 55, Trans-3′-oxo-N-[1-(3-quinolyl)-4-imidazolyl]spiro[cyclohexane-1,1′(3′H)-isobenzofuran]-4-carboxamide]	0.59 nM	> 300 °C	–
O=C1OC2(CCC(C(=O)Nc3ccn(-c4ccccc4F)n3)CC2)c2c[n+]([O-])ccc21 (stereo not drawn) [Example 107, trans-N-[1-(2-fluorophenyl)-3-pyrazolyl]-3-oxospiro[6-azaisobenzofuran-1(3H),1′-cyclohexane]-4′-carboxamide 6-oxide]	4.6 nM	–	isolated as metabolites of compound of example 101
O=C1OC2(CCC(C(=O)Nc3ccn(-c4ccc(O)cc4F)n3)CC2)c2cnccc21 (stereo not drawn) [Example 108, trans-N-[1-(2-fluoro-4-hydroxyphenyl)-3-pyrazolyl]-3-oxospiro[6-azaisobenzofuran-1(3H),1′-cyclohexane]-4′-carboxamide]	3 nM	–	isolated as metabolites of compound of example 101
O=C1OC2(CCC(O)(C(=O)Nc3ccn(-c4ccccc4F)n3)CC2)c2cnccc21 (stereo not drawn) [Example 109, cis-N-[1-(2-fluorophenyl)-3-pyrazolyl]-4′-hydroxy-3-oxospiro[6-azaisobenzofuran-1(3H),1′-cyclohexane]-4′-carboxamide]	–	–	isolated as metabolites of compound of example 101

From patent publication US6803372B2, “Spiro compounds” (Banyu Pharmaceutical Co., Ltd., priority 1999, dated 2004)
